Drawing on PubChem BioAssay (NCI), this text covers TGI and GI50 for 13 compounds.

Test systems include HOP-62 NSCLC; MCF7 breast; MOLT-4 leukemia; RPMI-8226 leukemia; SF-268 CNS; SK-MEL-28 melanoma; SK-MEL-5 melanoma; UACC-62 melanoma; OVCAR-3 ovarian; UO-31 renal; OVCAR-5 ovarian.
What all share (experiment): NCI tumour cell line growth inhibition, 48 h

The structures appear in SMILES notation.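 These data come from cells grown in 96-well plates and exposed to compound for 48 hours at five concentrations. Here, GI50 denotes the concentration required for 50% inhibition of growth. TGI is the concentration that stops growth completely.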

On to `COc1cccc(Nc2nc3c([nH]2)c(=O)n(C)c(=O)n3C)c1`, for which the TGI with HOP-62 NSCLC, with MCF7 breast, with MOLT-4 leukemia, in the assay on RPMI-8226 leukemia, in the assay with SF-268 CNS and in the assay with SK-MEL-28 melanoma was more than 10 µM each time. The TGI in the assay on SK-MEL-5 melanoma and in the assay with UACC-62 melanoma was more than 10 µM throughout.

Regarding `O=c1ccn([C@@H]2C=C(CO)[C@@H](O)[C@H]2O)c(=O)[nH]1`, the TGI in the assay with HOP-62 NSCLC, in the assay with MCF7 breast, with OVCAR-3 ovarian, with SF-268 CNS, in the assay on SK-MEL-28 melanoma and in the assay on SK-MEL-5 melanoma was more than 625 µM throughout. The TGI with UACC-62 melanoma and in the assay on UO-31 renal was more than 625 µM in each case.

In the case of `CN(C)CCN1C(=O)N(CCN(C)C)c2c3cc(O)ccc3nc3c([N+](=O)[O-])ccc1c23`, the TGI turned out to be 42.4 µM in the assay on RPMI-8226 leukemia; 26.7 µM in the assay on SF-268 CNS; 58.5 µM in the assay on SK-MEL-28 melanoma; 26.8 µM with SK-MEL-5 melanoma; 30.8 µM in the assay with UACC-62 melanoma; 33.9 µM in the assay with UO-31 renal.

Consider `COc1ccc(CCn2ccc(=O)c(O)c2C)cc1OC`, for which the TGI was more than 100 µM with HOP-62 NSCLC; 61.5 µM in the assay with MCF7 breast; more than 100 µM in the assay on MOLT-4 leukemia; more than 100 µM in the assay with OVCAR-5 ovarian; 96.9 µM in the assay with RPMI-8226 leukemia; 9.92 µM in the assay on SF-268 CNS. Besides, the TGI in the assay on SK-MEL-5 melanoma was found to be 41.8 µM.

Consider `CC(=O)Oc1ccc2c(c1)O/C(=C\c1ccc(O)cc1)C2=O`, for which the TGI in the assay on HOP-62 NSCLC, in the assay with MCF7 breast, with MOLT-4 leukemia, in the assay with OVCAR-3 ovarian, with RPMI-8226 leukemia and in the assay with SF-268 CNS was more than 100 µM each time. The TGI with SK-MEL-28 melanoma, in the assay on SK-MEL-5 melanoma, with UACC-62 melanoma and with UO-31 renal was more than 100 µM throughout.

As for `O=C1c2cccnc2C(=O)c2c1nc1ccccc1c2-c1ccc2c3c(nc4ccccc42)C(=O)c2cccnc2-c13`, the TGI came to 22.9 µM in the assay with HOP-62 NSCLC; 8.05 µM with MCF7 breast; 5.66 µM in the assay with MOLT-4 leukemia; 33.6 µM in the assay with OVCAR-5 ovarian; 7.14 µM in the assay with RPMI-8226 leukemia; 6.46 µM with SF-268 CNS. In addition, the TGI amounted to 13.5 µM in the assay with SK-MEL-28 melanoma, 1.77 µM in the assay on SK-MEL-5 melanoma, 5.1 µM in the assay on UACC-62 melanoma and 4.62 µM in the assay on UO-31 renal.

With `CCOC(=O)c1c(-c2ccc(OC)cc2)c(C#N)c(=S)n(C2OC(CO)C(O)C(O)C2O)c1C` (stereo unspecified), the TGI in the assay with HOP-62 NSCLC, with MCF7 breast, in the assay with MOLT-4 leukemia, with OVCAR-3 ovarian, in the assay with OVCAR-5 ovarian and with SF-268 CNS was more than 100 µM in each case. In addition, the TGI in the assay on SK-MEL-28 melanoma, in the assay with SK-MEL-5 melanoma and in the assay on UO-31 renal was more than 100 µM throughout.

As for `COc1ccc(C(=O)/C=C/c2ccc(OCCCCCCCCCCOc3ccc(/C=C/C(=O)c4ccc(OC)c(OC)c4)cc3)cc2)c(OC)c1`, the TGI in the assay with HOP-62 NSCLC, in the assay with MCF7 breast, in the assay on MOLT-4 leukemia, with OVCAR-5 ovarian, in the assay on RPMI-8226 leukemia and in the assay with SF-268 CNS was more than 100 µM in each case. For the same compound, the TGI with SK-MEL-28 melanoma, in the assay with SK-MEL-5 melanoma, with UACC-62 melanoma and in the assay on UO-31 renal was more than 100 µM each time.

In the case of `CC1=[N+]([O-])C2(CCCC2)N(O)C1(C)C`, the TGI in the assay on HOP-62 NSCLC, in the assay on MCF7 breast, in the assay with OVCAR-3 ovarian, with OVCAR-5 ovarian, with RPMI-8226 leukemia and in the assay on SF-268 CNS was more than 100 µM in each case. The TGI in the assay on SK-MEL-28 melanoma, in the assay on SK-MEL-5 melanoma, with UACC-62 melanoma and in the assay on UO-31 renal was more than 100 µM in each case.

Consider `O=C1C=CC(=O)c2c(O)c(N3CCN(c4ncccn4)CC3)c(Cl)c(O)c21`, for which the TGI in the assay on HOP-62 NSCLC came to 5.63 µM; in the assay with MCF7 breast it was 3.32 µM; in the assay on MOLT-4 leukemia, 5.5 µM; in the assay on OVCAR-3 ovarian it was 3.16 µM; in the assay on OVCAR-5 ovarian it was 19.8 µM; in the assay on SF-268 CNS, 7.88 µM. Also, the TGI in the assay on SK-MEL-28 melanoma was 4.57 µM; with SK-MEL-5 melanoma it was 3.79 µM; in the assay with UACC-62 melanoma it was 6.02 µM; in the assay on UO-31 renal, 4.03 µM.

Regarding `O=C1c2cc3c(cc2-c2c1c1cc(F)c(F)cc1c(=O)n2C[C@H](O)CO)OCO3`, the GI50 is 0.0225 µM in the assay on HOP-62 NSCLC; 0.0317 µM in the assay on MOLT-4 leukemia; 0.224 µM with OVCAR-3 ovarian; 0.207 µM in the assay with OVCAR-5 ovarian; 0.0411 µM in the assay with SF-268 CNS; 0.28 µM in the assay on SK-MEL-28 melanoma. Besides, the GI50 is 0.0307 µM with SK-MEL-5 melanoma, 0.0153 µM with UACC-62 melanoma and 0.0698 µM in the assay on UO-31 renal. Besides, the TGI in the assay with HOP-62 NSCLC was 0.186 µM; with MOLT-4 leukemia, more than 100 µM; in the assay on OVCAR-3 ovarian it was 0.753 µM; with OVCAR-5 ovarian, 4.55 µM; in the assay with SF-268 CNS it was more than 100 µM; in the assay with SK-MEL-28 melanoma, 7.15 µM. For the same compound, the TGI was determined as 0.116 µM with SK-MEL-5 melanoma, 0.0678 µM in the assay on UACC-62 melanoma and 0.337 µM with UO-31 renal.

For `CC(=O)OC1COC(N2c3ccccc3[C@@H]3CCc4c([nH]c5ccccc45)[C@@H]32)C(OC(C)=O)C1OC(C)=O` (mixture of isomers), the TGI in the assay on HOP-62 NSCLC, in the assay on MOLT-4 leukemia, in the assay with OVCAR-3 ovarian, with OVCAR-5 ovarian, in the assay with RPMI-8226 leukemia and with SF-268 CNS was more than 100 µM in each case. The TGI in the assay on SK-MEL-28 melanoma, in the assay with SK-MEL-5 melanoma, in the assay with UACC-62 melanoma and in the assay with UO-31 renal was more than 100 µM in each case.

With `CN(C)CN1C(=O)/C(=N\n2c(-c3ccncc3)n[nH]c2=S)c2ccccc21`, the TGI in the assay with HOP-62 NSCLC was 84.7 µM; in the assay with MCF7 breast, more than 100 µM; in the assay on MOLT-4 leukemia it was 45.4 µM; in the assay with OVCAR-3 ovarian it was more than 100 µM; in the assay on OVCAR-5 ovarian it was more than 100 µM; with SF-268 CNS, more than 100 µM. Further, the TGI in the assay on SK-MEL-28 melanoma was more than 100 µM; in the assay on SK-MEL-5 melanoma, more than 100 µM; in the assay on UACC-62 melanoma, more than 100 µM; in the assay with UO-31 renal it was 57 µM.
